Experimental data: patent US6630310B1, “Assay for binding between carbohydrate and glycolipid” (Biopolymer Engineering Pharmaceutical, Inc., priority 1996, dated 2003)

Columns and labels:
[1] = Competition of ^3H-PGG-Glucan binding to lactosyl ceramide in 96-well plate assay (FIGS. 14, 15); parameters: species or system bovine; conditions: FIGS. 14 and 15
From the text: (§1) FIG. 14 is a graph of the comparison of underivatized, aqueous soluble β(1-3)-glucan and single helix competition of ^3H-underivatized, aqueous soluble β(1-3)-glucan binding in three assay formats. Underivatized, aqueous soluble β(1-3)-glucan or single helix glucan was used at designated concentrations to compete for ^3H-underivatized, aqueous soluble β(1-3)-glucan binding to lactosyl ceramide (LacCer) in a 96-well plate (triangles), or to lactosyl ceramide in reconstituted membranes (squares), or to human leukocyte membranes (circles). Open symbols represent underivatized, aqueous soluble β(1-3) glucan, and closed symbols represent single helix. Maximum competition was assigned at the highest concentration of underivatized, aqueous soluble β(1-3)-glucan used as competitor in each type of assay.
FIG. 15 is a graphic illustration of data showing that underivatized, aqueous soluble β(1-3) glucan and high molecular weight underivatized, aqueous soluble β(1-3) glucan (Network) compete more effectively for ^3H-underivatized, aqueous soluble β(1-3)-glucan binding to lactosyl ceramide in a 96-well plate assay than do single helix or laminarin. […]
Lactosyl ceramide or the sample to be measured was suspended in ethanol. […] The plate was incubated at 60° C. for 5 minutes, then supernatants were removed and counted.

[2] = system: human leukocyte membranes; assay: Direct binding of radioactively labeled underivatized, aqueous soluble β(1-3)-glucan to human leukocyte membranes (time course, concentration-dependence, Scatchard)
Procedure: Bound radioactively labeled underivatized, aqueous soluble β(1-3)-glucan was separated from unbound ligand by centrifugation through a double layer density gradient, and the membrane pellet was solubilized and radioactivity determined. Equilibrium binding was achieved after 60 minutes at 37° C. at a concentration of 1 μg/ml radioactively labeled underivatized, aqueous soluble β(1-3)-glucan (FIG. 1).
Membrane-associated radioactivity was determined following centrifugation of the reaction mixture through a sucrose/oil density gradient as described in the Examples. Specific binding was calculated by subtracting non-specific binding from total binding. […]
Membranes were diluted to 2 to 5 mg/ml in HBSS with and without 1 mg/ml BSA. […] The tubes were spun at 15,000×g for 4-5 minutes and the tips containing the membrane pellets were removed, incubated in 300 μl SOLVABLE™ (New England Nuclear, Boston, Mass.) overnight at 50° C. to dissolve the pellet, and then radioactivity determined by liquid scintillation counting. No radioactivity was found in the oil layer in the absence of added membranes. […]

[3] = Competition of ^3H-PGG-Glucan binding to lactosyl ceramide in reconstituted membranes (FIG. 14)
From the text: as §1
Membranes were prepared from the receptor-negative cell line, U937, and extracted with chloroform/methanol as described above. The upper and lower layers were combined after removal of the proteinaceous interphase and dried under a stream of argon with the sample to be assayed for binding (lactosyl ceramide or fractions from the purification). […]
The dried lipid/sample preparations were resuspended in HBSS (500 μL) by brief sonication, and centrifuged for 10 minutes at 12,000×g. […] Pellets were then dissolved in SOLVABLE™, scintillation fluid was added, and radioactivity was measured.

[4] = system: NF-IL6; assay: EMSA of NF-IL6 activation in BMC2.3 cells; assay type: cell-based, murine; conditions: 3 μg/ml, various times at 37° C. (FIG. 5)
Procedure: (§2) In order to assess the activation of signal transduction as exemplified by the modulation of one or more transcriptional regulatory factors by underivatized, aqueous soluble β(1-3)-glucan, BMC2.3 cells were incubated with 3 μg/ml underivatized, aqueous soluble β(1-3)-glucan for various periods of time at 37° C. Nuclear extracts were prepared and incubated with ^32P-labeled DNA oligonucleotides specific for NF-κB or NF-IL6. The protein-^32P DNA complexes were separated from unbound ^32P DNA by gel electrophoresis (electrophoretic mobility shift assay, EMSA).
(§3) BMC2.3 cells in DMEM plus 10% fetal calf serum were incubated with 3 μg/ml underivatized, aqueous soluble β(1-3)-glucan for various lengths of time. Nuclear extracts were prepared by the method of Dignam et al. (Nuc. Acid Res. 11:1475-1489 (1983)). Nuclear extracts were then incubated with ^32P-labeled DNA oligonucleotide for twenty minutes at room temperature. The sequence of the oligonucleotide used as the probe was […] (SEQ ID NO: 1). The reaction mixture was then separated on a 4% polyacrylamide gel and the results recorded autoradiographically.

[5] = system: NF-κB; assay: EMSA of NF-κB activation in BMC2.3 cells; assay type: cell-based, murine; conditions: 3 μg/ml, various times at 37° C. (FIG. 4)
Procedure: as §2, §3

competition for ^3H-underivatized, aqueous soluble β(1-3)-glucan binding to LacCer in the 96-well plate assay (in words) [1]: competes
binding to its receptor at room temperature or below (in words) [2]: does not bind
competition for ^3H-underivatized, aqueous soluble β(1-3)-glucan binding to LacCer in the reconstitution assay (in words) [3]: competes
Substance: underivatized, aqueous soluble β(1-3)-glucan [PGG-Glucan]
NF-IL6 protein-^32P DNA complex formation (EMSA, in words) [4]: time dependent increase in protein-DNA complexes
NF-κB protein-^32P DNA complex formation (EMSA, in words) [5]: time dependent increase in protein-DNA complexes
